Results published in ChEMBL document CHEMBL3351706, “Identification of trichostatin derivatives from Streptomyces sp. CPCC 203909” (Bioorg Med Chem Lett, 2015).

Experiments:
[1] = Up-regulation of transcriptional activity of human CLA-1 promoter region -1055 to -62bp transfected in HepG2 cells by luciferase reporter gene assay; type: cell-based
HeLa = experiment: Cytotoxicity against human HeLa cells after 96 hrs by MTT assay; type: functional, cell-based
HEK293 = experiment: Cytotoxicity against human HEK293 cells after 96 hrs by MTT assay; type: cell-based; conditions: HEK293, 96 h
HepG2 = experiment: Cytotoxicity against human HepG2 cells after 96 hrs by MTT assay; type: functional, cell-based; conditions: HepG2, 96 h
U2OS = experiment: Cytotoxicity against human U2OS cells after 96 hrs by MTT assay; type: functional, cell-based
[2] = Cytotoxicity against human LO2 cells after 96 hrs by MTT assay; type: cell-based; conditions: L02, 96 h

Row | EC50 [1] [µM] | Structure (SMILES) | IC50 (HeLa) [µM] | IC50 (HEK293) [µM] | IC50 (HepG2) [µM] | IC50 (U2OS) [µM] | IC50 [2] [µM]
1 | > 100 | CNc1ccc(C(=O)[C@](C)(O)/C=C(C)/C=C/C(N)=O)cc1 | > 200 | > 100 | > 200 | > 200 | > 200
2 | 14.3 | CNc1ccc(C(=O)[C@](C)(O)/C=C(C)/C=C/C(=O)NO)cc1 | > 200 | 14.2 | > 200 | > 200 | 15.5
3 | > 100 | CC(/C=C/C(N)=O)=C\[C@@](C)(O)C(=O)c1ccc(N(C)C)cc1 | > 200 | > 100 | > 200 | > 200 | > 200
4 | > 100 | CC(=C/[C@@H](C)C(=O)c1ccc(N(C)C)cc1)/C=C/C(=O)O | > 200 | > 100 | > 200 | > 200 | > 200
5 | 2.39 | CC(/C=C/C(N)=O)=C\[C@@H](C)C(=O)c1ccc(N(C)C)cc1 | > 200 | 26.2 | > 200 | > 200 | 29.1
6 | 78.8 | CNC(=O)/C=C/C(C)=C/[C@@H](C)C(=O)c1ccc(N(C)C)cc1 | > 200 | 8.14 | > 200 | > 200 | 23.9
7 | 48.2 | CC(/C=C/C(=O)NO[C@H]1O[C@H](CO)[C@@H](O)[C@H](O)[C@H]1O)=C\[C@@H](C)C(=O)c1ccc(N(C)C)cc1 | > 200 | > 100 | > 200 | > 200 | > 200
8 | 46 | CC(/C=C/C(=O)NO[C@@H]1O[C@H](CO)[C@@H](O)[C@H](O)[C@H]1O)=C\[C@@H](C)C(=O)c1ccc(N(C)C)cc1 | > 200 | > 100 | > 200 | > 200 | > 200
9 | > 100 | CC(/C=C/C(=O)O)=C\[C@@H](C)C(=O)c1ccc(N(C)C)cc1 [TRICHOSTATIC ACID] | > 200 | 86.6 | > 200 | > 200 | 89.2
10 | 0.38 | CC(/C=C/C(=O)NO)=C\[C@@H](C)C(=O)c1ccc(N(C)C)cc1 [TRICHOSTATIN] | 0.85 | 0.16 | 0.96 | 14.9 | 0.21
